SMILES strings stand for the structures.

This note sets out measurements from article PMC8195388, “Heterologous Expression of Cyclodextrin Glycosyltransferase my20 in Escherichia coli and Its Application in 2-O-α-D-Glucopyranosyl-L-Ascorbic Acid Production” (Frontiers in Microbiology, 2021).

The assay concerns T1, recombinant CGTase MY20 (my20).
T1 construct: codon-optimized my20 gene in pET-24a(+), E. coli BL21(DE3), intracellular, Ni-NTA purified
Nature of the assay: AA-2G synthesis, HPLC […] nm, ping-pong fit. The class given is biochemical, metagenome: marine microorganisms, Mariana Trench. The settings on record: pH 5, 40°C.

With `OC[C@H]1O[C@@H]2O[C@H]3[C@H](O)[C@@H](O)[C@@H](O[C@H]4[C@H](O)[C@@H](O)[C@@H](O[C@H]5[C@H](O)[C@@H](O)[C@@H](O[C@H]6[C@H](O)[C@@H](O)[C@@H](O[C@H]7[C@H](O)[C@@H](O)[C@@H](O[C@H]8[C@H](O)[C@@H](O)[C@@H](O[C@H]1[C@H](O)[C@H]2O)O[C@@H]8CO)O[C@@H]7CO)O[C@@H]6CO)O[C@@H]5CO)O[C@@H]4CO)O[C@@H]3CO` [β-CD], the KmB (glucosyl donor, co-substrate L-ascorbic acid 1-50 g/L) was determined as 6.9 ± 0.04 g/L.

For `O=C1O[C@H]([C@@H](O)CO)C(O)=C1O` [L-ascorbic acid], the KmA (glucosyl acceptor, co-substrate beta-cyclodextrin 0.5-25 g/L) is listed as 9.2 ± 0.06 g/L.
